Results as given in US20240108738A1, “BICYCLIC PEPTIDE LIGANDS SPECIFIC FOR NK CELLS” (Bicycle Tx Limited, priority 2021, published 2024).
Numbered stars: 1 amine (or outer) side, 2 acyl side, 3 side chain; on linkers, the order of the positions; unused ones are H or OH. Bridge positions count the residues as written; N and C are the ends. Square brackets hold non-standard residues; d marks the D form. Peptide text beside a SMILES is read from it. TATA = O=C(CC[*:1])N1CN(C(=O)CC[*:2])CN(C(=O)CC[*:3])C1

target: T1, Fc-tagged human NKp46 (Homo sapiens, UniProt O76036); experiment: NKp46 SPR assay (Method 1 and/or Method 2); format: binding; conditions: SPR Method 1 and/or Method 2, Table 3B
T1 construct: purchased ACROBiosystems NC1-H5257
T1 sequence (O76036 22-304): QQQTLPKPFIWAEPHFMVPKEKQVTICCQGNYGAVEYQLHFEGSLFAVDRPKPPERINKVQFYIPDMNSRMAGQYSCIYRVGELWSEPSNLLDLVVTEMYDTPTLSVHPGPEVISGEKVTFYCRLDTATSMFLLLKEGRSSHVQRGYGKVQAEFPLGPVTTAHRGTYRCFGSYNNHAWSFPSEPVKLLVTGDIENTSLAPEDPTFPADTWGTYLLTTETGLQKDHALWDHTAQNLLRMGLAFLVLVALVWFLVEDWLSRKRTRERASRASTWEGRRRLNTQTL
Protocol: SPR experiments were performed to determine ka (M^−1s^−1), kd (s^−1), KD (nM) values (where measurable) of various bicyclic peptides to immobilised NKp46.
For analysis of peptide binding to NKp46, a Biacore 3000 instrument was used with a Cytiva Streptavidin chip. Capture of the protein (recombinant human NKp46-Fc fusion biotinylated via Avi-tag) was carried out at 25° C. with HBS-N (10 mM HEPES, 0.15 M NaCl, pH 7.4) as the running buffer and biotinylated NKp46 was captured to a level of 400-800 RU using a dilution of protein to 0.2 μM in buffer. Buffer was then changed to PBS/0.05% Tween 20 and a dilution series of the peptides was prepared in this buffer with a final DMSO concentration of 0.5% with a top peptide concentration of 100 nM-5000 nM and 6 further 2 or 3-fold dilutions. The SPR analysis was run at 25° C. and a flow rate of 50 μl/min with 60 seconds association and 200-400 seconds dissociation time. Data were corrected for DMSO excluded volume effects. All data were double-referenced for blank injections and reference surface using standard processing procedures and data processing and kinetic fitting were performed using Scrubber software, version 2.0c (BioLogic Software). Data were fitted using simple 1:1 binding model allowing for mass transport effects where appropriate.
Peptides were tested against Fc-tagged human NKp46 (ACROBiosystems, cat no. NC1-H5257).
For analysis of peptide binding, a Biacore 8k+ instrument was used with a CM5 chip (Cytiva). All experiments were carried out at 25° C. Anti-human IgG (Fc) antibody (Cytiva) was immobilized on all flow cells by standard amine coupling chemistry. The running buffer was HBS-N(Cytiva, 10 mM HEPES, 0.15 M NaCl, pH 7.4) and the flow rate was 10 μL/min. The carboxymethyl dextran surface was activated with a 1:1 ratio of 0.4 M 1-ethyl-3-(3-dimethylaminopropyl) carbodiimide hydrochloride (EDC)/0.1 M N-hydroxy succinimide (NHS) (Cytiva) for 420s. […] Residual activated groups were blocked with a 420 s injection of 1 M ethanolamine (pH 8.5). The final surface density was 3000-5000 RU. Fc-tagged human NKp46 was diluted to 0.1 μM in HBS-N and was captured on flow cell 2 only of the sensor chip at a flow rate of 10 μL/min to 500-1000 RU. The buffer was then changed to PBS-P+(Cytiva) supplemented with 2% DMSO. […] The flow rate was 50 μL/min with 60 s association and 400 s dissociation. Data were corrected for DMSO volume exclusion effects. All data were double-referenced against blank injections and reference surface response using standard processing procedures. Data processing and kinetic fitting was performed using Biacore Insight Evaluation Software with Extended Screening and Characterization Extension (Cytiva). Data were fitted using steady state affinity 1:1 binding model to determine KD. Data were fitted using kinetic 1:1 binding model to determine kinetic constants where appropriate.

Point of comparison: `CC[C@H](C)[C@@H]1NC(=O)[C@@H](C)NC(=O)[C@H](Cc2c[nH]c3ccccc23)NC(=O)[C@H](CCC(N)=O)NC(=O)[C@@H]2CSCCC(=O)N3CN(CN(C3)C(=O)CCSC[C@@H](C(=O)N[C@@H](C)C(N)=O)NC1=O)C(=O)CCSC[C@H](NC(=O)[C@H](C)N)C(=O)N[C@@H](CC(=O)O)C(=O)N[C@@H](CC(C)C)C(=O)N[C@@H]([C@@H](C)O)C(=O)N[C@@H]([C@@H](C)O)C(=O)N[C@@H](Cc1c[nH]cn1)C(=O)N[C@@H](CC(N)=O)C(=O)N2` [BCY18292, A-(SEQ ID NO: 135)-A] (H-ACDLTTHNCQW[dA]ICA-NH2; linker 2-9-14 via TATA; N-terminus and C-terminus assumed), Kd 1460 nM. Against it:
- CC[C@H](C)[C@@H]1NC(=O)CNC(=O)[C@H](Cc2c[nH]c3ccccc23)NC(=O)[C@H](CCC(N)=O)NC(=O)[C@@H]2CSCCC(=O)N3CN(CN(C3)C(=O)CCSC[C@@H](C(=O)N[C@@H](C)C(N)=O)NC1=O)C(=O)CCSC[C@H](NC(=O)[C@H](C)N)C(=O)N[C@@H](CC(=O)O)C(=O)N[C@@H](CC(C)C)C(=O)N[C@@H](C)C(=O)N[C@@H]([C@@H](C)O)C(=O)N[C@@H](Cc1c[nH]cn1)C(=O)N[C@@H](CC(N)=O)C(=O)N2 [BCY18265, A-(SEQ ID NO: 117)-A] (H-ACDLATHNCQWGICA-NH2; linker 2-9-14 via TATA; C-terminus assumed) — within 1.5-fold, 1480 nM
- CC[C@H](C)[C@@H]1NC(=O)CNC(=O)[C@H](Cc2c[nH]c3ccccc23)NC(=O)[C@H](C)NC(=O)[C@@H]2CSCCC(=O)N3CN(CN(C3)C(=O)CCSC[C@@H](C(=O)N[C@@H](C)C(N)=O)NC1=O)C(=O)CCSC[C@H](NC(=O)[C@H](C)N)C(=O)N[C@@H](CC(=O)O)C(=O)N[C@@H](CC(C)C)C(=O)N[C@@H]([C@@H](C)O)C(=O)N[C@@H]([C@@H](C)O)C(=O)N[C@@H](Cc1c[nH]cn1)C(=O)N[C@@H](CC(N)=O)C(=O)N2 [BCY18269, A-(SEQ ID NO: 119)-A] (H-ACDLTTHNCAWGICA-NH2; linker 2-9-14 via TATA) — within 1.5-fold, 1640 nM
- CC(C)C[C@@H]1NC(=O)[C@H](CC(=O)O)NC(=O)[C@@H](NC(=O)[C@H](C)N)CSCCC(=O)N2CN3CN(C2)C(=O)CCSC[C@H](NC(=O)[C@H](CC(N)=O)NC(=O)[C@H](Cc2c[nH]cn2)NC(=O)[C@H]([C@@H](C)O)NC(=O)[C@H]([C@@H](C)O)NC1=O)C(=O)N[C@@H](CCC(N)=O)C(=O)N[C@@H](Cc1c[nH]c2ccccc12)C(=O)NCC(=O)N[C@@H](C)C(=O)N[C@H](C(=O)N[C@@H](C)C(N)=O)CSCCC3=O [BCY18272, A-(SEQ ID NO: 120)-A] (H-ACDLTTHNCQWGACA-NH2; linker 2-9-14 via TATA) — 2.2-fold higher, 3190 nM
- CC[C@H](C)[C@@H]1NC(=O)CNC(=O)[C@H](Cc2c[nH]c3ccccc23)NC(=O)[C@H](C(C)C)NC(=O)[C@@H]2CSCCC(=O)N3CN(CN(C3)C(=O)CCSC[C@@H](C(=O)N[C@@H](C)C(N)=O)NC1=O)C(=O)CCSC[C@H](NC(=O)[C@H](C)N)C(=O)N[C@@H](CC(=O)O)C(=O)N[C@@H](CC(C)C)C(=O)N[C@@H]([C@@H](C)O)C(=O)N[C@@H]([C@@H](C)O)C(=O)N[C@@H](Cc1c[nH]cn1)C(=O)N[C@@H](CC(N)=O)C(=O)N2 [BCY18285, A-(SEQ ID NO: 128)-A] (H-ACDLTTHNCVWGICA-NH2; linker 2-9-14 via TATA; N-terminus and C-terminus assumed) — 2.6-fold higher, 3760 nM
- CC[C@H](C)[C@@H]1NC(=O)CNC(=O)[C@H](Cc2cn(C)c3ccccc23)NC(=O)[C@H](CCC(N)=O)NC(=O)[C@@H]2CSCCC(=O)N3CN(CN(C3)C(=O)CCSC[C@@H](C(=O)N[C@@H](C)C(N)=O)NC1=O)C(=O)CCSC[C@H](NC(=O)[C@H](C)N)C(=O)N[C@@H](CC(=O)O)C(=O)N[C@@H](CC(C)C)C(=O)N[C@@H]([C@@H](C)O)C(=O)N[C@@H]([C@@H](C)O)C(=O)N[C@@H](Cc1c[nH]cn1)C(=O)N[C@@H](CC(N)=O)C(=O)N2 [BCY18288, A-(SEQ ID NO: 131)-A] — 4.1-fold lower, 354 nM
- CSCC[C@@H]1NC(=O)[C@@H]2CSCCC(=O)N3CN(CN(C3)C(=O)CCSC[C@H](N)C(=O)N[C@@H](CC(N)=O)C(=O)N[C@@H](CC(C)C)C(=O)N[C@@H](CCC(N)=O)C(=O)N[C@@H](C)C(=O)N3CCC[C@H]3C(=O)N2)C(=O)CCSC[C@@H](C(N)=O)NC(=O)[C@H](C(C)C)NC(=O)[C@H](CCCCN)NC(=O)CNC(=O)[C@H]([C@@H](C)O)NC(=O)[C@H](CC(C)C)NC1=O [BCY18295, (SEQ ID NO: 4)] (H-CNLQAPCMLTGKVC-NH2; linker 1-7-14 via TATA; C-terminus assumed) — 4.4-fold higher, 6410 nM
- CSCC[C@@H]1NC(=O)[C@@H]2CSCCC(=O)N3CN(CN(C3)C(=O)CCSC[C@@H](C(=O)N[C@@H](C)C(N)=O)NC(=O)[C@H](C(C)C)NC(=O)[C@H](CCCCN)NC(=O)CNC(=O)[C@H]([C@@H](C)O)NC(=O)[C@H](CC(C)C)NC1=O)C(=O)CCSC[C@H](NC(=O)[C@H](C)N)C(=O)N[C@@H](CC(N)=O)C(=O)N[C@@H](CC(C)C)C(=O)N[C@@H](CCC(N)=O)C(=O)N[C@@H](C)C(=O)N[C@@H](C)C(=O)N2 [BCY18299, A-(SEQ ID NO: 64)-A] (H-ACNLQAACMLTGKVCA-NH2; linker 2-8-15 via TATA; N-terminus assumed) — within 1.5-fold, 1800 nM
- CSCC[C@@H]1NC(=O)[C@@H]2CSCCC(=O)N3CN(CN(C3)C(=O)CCSC[C@@H](C(=O)N[C@@H](C)C(N)=O)NC(=O)[C@H](C(C)C)NC(=O)[C@H](CCCCN)NC(=O)CNC(=O)[C@H]([C@@H](C)O)NC(=O)[C@H](C)NC1=O)C(=O)CCSC[C@H](NC(=O)[C@H](C)N)C(=O)N[C@@H](CC(N)=O)C(=O)N[C@@H](CC(C)C)C(=O)N[C@@H](CCC(N)=O)C(=O)N[C@@H](C)C(=O)N1CCC[C@H]1C(=O)N2 [BCY18301, A-(SEQ ID NO: 65)-A] (H-ACNLQAPCMATGKVCA-NH2; linker 2-8-15 via TATA; C-terminus assumed) — 2.8-fold higher, 4030 nM
- CSCC[C@@H]1NC(=O)[C@@H]2CSCCC(=O)N3CN(CN(C3)C(=O)CCSC[C@@H](C(=O)N[C@@H](C)C(N)=O)NC(=O)[C@H](C(C)C)NC(=O)[C@H](CCCCN)NC(=O)CNC(=O)[C@H](C)NC(=O)[C@H](CC(C)C)NC1=O)C(=O)CCSC[C@H](NC(=O)[C@H](C)N)C(=O)N[C@@H](CC(N)=O)C(=O)N[C@@H](CC(C)C)C(=O)N[C@@H](CCC(N)=O)C(=O)N[C@@H](C)C(=O)N1CCC[C@H]1C(=O)N2 [BCY18302, A-(SEQ ID NO: 66)-A] (H-ACNLQAPCMLAGKVCA-NH2; linker 2-8-15 via TATA; N-terminus assumed) — 3.7-fold higher, 5380 nM
- CSCC[C@@H]1NC(=O)[C@@H]2CSCCC(=O)N3CN(CN(C3)C(=O)CCSC[C@@H](C(=O)N[C@@H](C)C(N)=O)NC(=O)[C@H](C(C)C)NC(=O)[C@H](CCCCN)NC(=O)[C@H](C)NC(=O)[C@H]([C@@H](C)O)NC(=O)[C@H](CC(C)C)NC1=O)C(=O)CCSC[C@H](NC(=O)[C@H](C)N)C(=O)N[C@@H](CC(N)=O)C(=O)N[C@@H](CC(C)C)C(=O)N[C@@H](CCC(N)=O)C(=O)N[C@@H](C)C(=O)N1CCC[C@H]1C(=O)N2 [BCY18303, A-(SEQ ID NO: 67)-A] (H-ACNLQAPCMLTAKVCA-NH2; linker 2-8-15 via TATA) — 1.9-fold higher, 2750 nM
- CSCC[C@@H]1NC(=O)[C@@H]2CSCCC(=O)N3CN(CN(C3)C(=O)CCSC[C@@H](C(=O)N[C@@H](C)C(N)=O)NC(=O)[C@H](C(C)C)NC(=O)[C@H](C)NC(=O)CNC(=O)[C@H]([C@@H](C)O)NC(=O)[C@H](CC(C)C)NC1=O)C(=O)CCSC[C@H](NC(=O)[C@H](C)N)C(=O)N[C@@H](CC(N)=O)C(=O)N[C@@H](CC(C)C)C(=O)N[C@@H](CCC(N)=O)C(=O)N[C@@H](C)C(=O)N1CCC[C@H]1C(=O)N2 [BCY18304, A-(SEQ ID NO: 68)-A] (H-ACNLQAPCMLTGAVCA-NH2; linker 2-8-15 via TATA; N-terminus assumed) — within 1.5-fold, 1530 nM
- CC(C)C[C@@H]1NC(=O)[C@H](CC(N)=O)NC(=O)[C@@H](NC(=O)[C@H](C)N)CSCCC(=O)N2CN3CN(C2)C(=O)CCSC[C@H](NC(=O)[C@@H]2CCCN2C(=O)[C@H](C)NC(=O)[C@H](CCC(N)=O)NC1=O)C(=O)N[C@@H](CC(C)C)C(=O)N[C@@H](CC(C)C)C(=O)N[C@@H]([C@@H](C)O)C(=O)NCC(=O)N[C@@H](CCCCN)C(=O)N[C@@H](C(C)C)C(=O)N[C@H](C(=O)N[C@@H](C)C(N)=O)CSCCC3=O [BCY18313, A-(SEQ ID NO: 75)-A] (H-ACNLQAPCLLTGKVCA-NH2; linker 2-8-15 via TATA; N-terminus assumed) — 1.9-fold higher, 2750 nM
